This passage reports Hepatotoxicity results from ChEMBL document CHEMBL1697723, “A predictive ligand-based Bayesian model for human drug-induced liver injury” (Drug Metab Dispos, 2010).

The test system of this series is Hepatotoxicity. Put plainly: Human drug-induced liver injury (DILI) modelling dataset from Ekins et al.

For the compound `Nc1ncnc2c1ncn2[C@@H]1O[C@H](CO)[C@@H](O)[C@H]1O` [ADENOSINE], the Hepatotoxicity entry is “DILI negative (training set)”. Still for that read-out and setting: in the case of `CC(=O)Nc1nnc(S(N)(=O)=O)s1` [ACETAZOLAMIDE] it was “DILI positive (training set)”; in that of `CN(C)C(=O)C(CCN1CCC(O)(c2ccc(Cl)cc2)CC1)(c1ccccc1)c1ccccc1.Cl` [LOPERAMIDE HYDROCHLORIDE], “DILI negative (training set)”; in that of `N[C@@H]1[C@H]2CN(c3nc4c(cc3F)c(=O)c(C(=O)O)cn4-c3ccc(F)cc3F)C[C@@H]12` [TROVAFLOXACIN], “DILI positive (training set)”.

In the case of `CNS(=O)(=O)Cc1ccc2[nH]cc(CCN(C)C)c2c1`, the Hepatotoxicity result is reported as “DILI negative (training set)”.

As for `COc1ccc(OC)c(C(O)C(C)N)c1.Cl` (configuration not stated) [METHOXAMINE HYDROCHLORIDE], the Hepatotoxicity entry is “DILI negative (training set)”. For the compound `CN(C)/N=N/c1[nH]cnc1C(N)=O` [DACARBAZINE], the Hepatotoxicity entry is recorded as “DILI positive (test set)”. For the compound `Cc1ccc(-c2cc(C(F)(F)F)nn2-c2ccc(S(N)(=O)=O)cc2)cc1` [CELECOXIB], the Hepatotoxicity entry (Liver) is listed as “DILI positive (test set)”. Turning to `CCCCC(CC)COC(=O)C=Cc1ccc(OC)cc1` (configuration not stated) [OCTINOXATE], the Hepatotoxicity entry is recorded as “DILI positive (test set)”. Still for that read-out and setting: then `CNCCc1ccccn1.Cl.Cl` [BETAHISTINE HYDROCHLORIDE], with “DILI positive (training set)”; and `NCC1(CC(=O)O)CCCCC1` [GABAPENTIN], with “DILI negative (training set)”.

Consider CARBOPLATIN, for which the Hepatotoxicity entry is “DILI positive (test set)”. On the same count and under the same terms, in the case of `CNC(=O)Oc1ccc2c(c1)[C@]1(C)CCN(C)[C@@H]1N2C` [PHYSOSTIGMINE] it was “DILI negative (training set)”; in that of `O=C1NCN(c2ccccc2)C12CCN(CCCC(c1ccc(F)cc1)c1ccc(F)cc1)CC2`, “DILI positive (test set)”; in that of `CC[C@]1(O)C[C@H]2CN(CCc3c([nH]c4ccccc34)[C@@](C(=O)OC)(c3cc4c(cc3OC)N(C=O)[C@H]3[C@@](O)(C(=O)OC)[C@H](OC(C)=O)[C@]5(CC)C=CCN6CC[C@]43[C@@H]65)C2)C1.O=S(=O)(O)O` [VINCRISTINE SULFATE], “DILI positive (test set)”. As to `Nc1c2c(nc3ccccc13)CCCC2` [TACRINE], under “Liver”, the Hepatotoxicity entry was “DILI negative (training set)”.

For `C[C@]12CC[C@@H]3c4ccc(O)cc4CC[C@H]3[C@@H]1CC[C@@H]2O[C@@H]1O[C@H](C(=O)O)[C@@H](O)[C@H](O)[C@H]1O` [ESTRADIOL 17B GLUCURONIDE], the Hepatotoxicity entry is on record as “DILI positive (training set)”. As for `COc1cccc(OC)c1C(=O)N[C@@H]1C(=O)N2[C@@H]1SC(C)(C)[C@@H]2C(=O)[O-].[Na+]`, the Hepatotoxicity result is “DILI positive (training set)”. Same read-out and setting: then `CCCN(CCC)C(=O)Cc1c(-c2ccc(Cl)cc2)nc2ccc(Cl)cn12` [ALPIDEM], with “DILI positive (test set)”. In the case of `NNC(=O)c1ccncc1` [ISONIAZID], the Hepatotoxicity entry is recorded as “DILI positive (training set)”. For `COc1cc2c(c3oc(=O)c4c(c13)CCC4=O)[C@@H]1C=CO[C@@H]1O2` [AFLATOXIN], the Hepatotoxicity result is “DILI positive (test set)”. Same read-out and setting: then `CO[C@H]1/C=C/O[C@@]2(C)Oc3c(C)c(O)c4c(O)c(c(/C=N/N5CCN(C)CC5)c(O)c4c3C2=O)NC(=O)/C(C)=C\C=C\[C@H](C)[C@H](O)[C@@H](C)[C@@H](O)[C@@H](C)[C@H](OC(C)=O)[C@@H]1C` [RIFAMPIN], with “DILI negative (test set)”; and `O=C1C(CC[S+]([O-])c2ccccc2)C(=O)N(c2ccccc2)N1c1ccccc1` (configuration not stated) [SULFINPYRAZONE], with “DILI positive (test set)”. For `COc1ccc2cc([C@H](C)C(=O)O)ccc2c1` [NAPROXEN], under “Liver”, the Hepatotoxicity entry is “DILI negative (test set)”. Same read-out and setting: then `COc1cc([C@@H]2c3cc4c(cc3[C@@H](O[C@@H]3O[C@@H]5CO[C@@H](C)O[C@H]5[C@H](O)[C@H]3O)[C@H]3COC(=O)[C@H]23)OCO4)cc(OC)c1O` [ETOPOSIDE], with “DILI positive (training set)”. `CC(C)(Oc1ccc(CCNC(=O)c2ccc(Cl)cc2)cc1)C(=O)O` [BEZAFIBRATE]: the Hepatotoxicity result is given as “DILI negative (training set)”. With `Nc1ncn([C@@H]2O[C@H](CO)[C@@H](O)[C@H]2O)c(=O)n1` [AZACITIDINE], the Hepatotoxicity result (Liver) is listed as “DILI positive (test set)”. Turning to `O=P1(N(CCCl)CCCl)NCCCO1` (configuration not stated) [CYCLOPHOSPHAMIDE ANHYDROUS], the Hepatotoxicity entry (Liver) is “DILI positive (training set)”. Turning to `C[n+]1ccc(-c2cc[n+](C)cc2)cc1`, the Hepatotoxicity result is “DILI positive (test set)”. For `CN(C)C(=O)Oc1cc(OC(=O)N(C)C)cc(C(O)CNC(C)(C)C)c1` (configuration not stated) [BAMBUTEROL], the Hepatotoxicity entry is recorded as “DILI negative (training set)”.

For `CN(C)[C@@H]1C(O)=C(C(N)=O)C(=O)[C@@]2(O)C(O)=C3C(=O)c4c(O)ccc(Cl)c4[C@@H](O)[C@H]3C[C@@H]12.Cl` [DEMECLOCYCLINE HYDROCHLORIDE], the Hepatotoxicity entry is on record as “DILI positive (training set)”. Same read-out and setting: then `CC(=O)N[C@@H](CS)C(=O)O` [ACETYLCYSTEINE], with “DILI negative (test set)”; and `Cl.N` [AMMONIUM CHLORIDE], with “DILI negative (training set)”; and POTASSIUM DICHROMATE, with “DILI positive (training set)”. `Cc1ccccc1N1C(=O)c2cc(S(N)(=O)=O)c(Cl)cc2NC1C` (configuration not stated) [METOLAZONE]: the Hepatotoxicity result is reported as “DILI positive (test set)”. `N#CC(C#N)=NNc1ccc(OC(F)(F)F)cc1`: the Hepatotoxicity entry (Liver) is “DILI positive (training set)”. Consider `C[C@H](N)Cc1ccccc1.C[C@H](N)Cc1ccccc1.O=S(=O)(O)O` [DEXTROAMPHETAMINE SULFATE], for which the Hepatotoxicity entry is recorded as “DILI positive (test set)”. `OCCO` [ETHYLENE GLYCOL]: for the setting “Liver”, the Hepatotoxicity result is “DILI positive (test set)”. `CN1CCN(CCCN2c3ccccc3Sc3ccc(C(F)(F)F)cc32)CC1` [TRIFLUOPERAZINE]: the Hepatotoxicity entry is “DILI positive (training set)”. Same read-out and setting: then `O=C1OCCN1/N=C/c1ccc([N+](=O)[O-])o1` [FURAZOLIDONE], with “DILI positive (training set)”.

On to `Nc1nc2ncc(CNc3ccc(C(=O)N[C@@H](CCC(=O)O)C(=O)O)cc3)nc2c(=O)[nH]1` [FOLIC ACID], for which the Hepatotoxicity entry was “DILI negative (training set)”.

Regarding `C=C1CC[C@H](O)C/C1=C/C=C1\CCC[C@]2(C)[C@@H]([C@H](C)/C=C/[C@H](C)C(C)C)CC[C@@H]12` [ERGOCALCIFEROL], under “Liver”, the Hepatotoxicity entry is on record as “DILI negative (training set)”. The same measure, in the same setting: in the case of `CNCCCN1c2ccccc2CCc2ccccc21` [DESIPRAMINE] it was “DILI negative (training set)”. On to `Cc1cc(CC(=O)O)n(C)c1C(=O)c1ccc(Cl)cc1` [ZOMEPIRAC], for which the Hepatotoxicity entry was “DILI negative (training set)”. On the same count and under the same terms, then `C[C@H](C(=O)O)c1ccc2oc(-c3ccc(F)cc3)nc2c1` [FLUNOXAPROFEN], with “DILI negative (test set)”; and `CCCCCCCCCCCCCCCC(=O)OC/C=C(C)/C=C/C=C(C)/C=C/C1=C(C)CCCC1(C)C` [VITAMIN A PALMITATE], with “DILI positive (test set)”. `COc1cccc2c1C(=O)c1c(O)c3c(c(O)c1C2=O)C[C@@](O)(C(=O)CO)C[C@@H]3O[C@H]1C[C@H](N)[C@H](O)[C@H](C)O1.Cl` [DOXORUBICIN HYDROCHLORIDE]: the Hepatotoxicity entry was “DILI positive (test set)”.

In the case of `[H]/N=C(/N)N[C@H]1[C@H](O)[C@@H](O)[C@H](O[C@@H]2O[C@@H](C)[C@](O)(C=O)[C@H]2O[C@@H]2O[C@@H](CO)[C@H](O)[C@@H](O)[C@@H]2NC)[C@@H](N/C(N)=N\[H])[C@@H]1O` [STREPTOMYCIN], the Hepatotoxicity entry (Liver) is “DILI negative (test set)”. `CC1(C)S[C@@H]2[C@H](NC(=O)[C@H](N)c3ccccc3)C(=O)N2[C@H]1C(=O)[O-].[Na+]` [AMPICILLIN SODIUM]: the Hepatotoxicity result is on record as “DILI negative (test set)”. As to `Cc1ncc(CO)c(CO)c1O` [PYRIDOXINE], the Hepatotoxicity entry (Liver) was “DILI negative (training set)”.

Turning to `C=C(C)[C@H]1Cc2c(ccc3c2O[C@@H]2COc4cc(OC)c(OC)cc4[C@@H]2C3=O)O1` [ROTENONE], the Hepatotoxicity result is “DILI positive (test set)”.

On to `N[C@H]1C(O)O[C@H](CO)[C@@H](O)[C@@H]1O` (some centres not stated) [GLUCOSAMINE], for which the Hepatotoxicity entry was “DILI positive (training set)”.

Regarding `CC(C)(C)NC[C@H](O)COc1nsnc1N1CCOCC1.O=C(O)/C=C\C(=O)O` [TIMOLOL MALEATE], the Hepatotoxicity result is on record as “DILI positive (training set)”. As for `O=P1(NCCCl)OCCCN1CCCl` (configuration not stated) [IFOSFAMIDE], the Hepatotoxicity entry was “DILI positive (test set)”. In the case of `O=C(O)c1cc(/N=N/c2ccc(S(=O)(=O)Nc3ccccn3)cc2)ccc1O` [SULFASALAZINE], the Hepatotoxicity entry is “DILI positive (training set)”. `O=S(=O)(O)O.Oc1cccc2cccnc12.Oc1cccc2cccnc12` [OXYQUINOLINE SULFATE]: the Hepatotoxicity entry (Liver) is given as “DILI positive (test set)”. With `NCCc1ccc(O)c(O)c1` [DOPAMINE], under “Liver”, the Hepatotoxicity result is on record as “DILI negative (training set)”. As for BISMUTH SUBSALICYLATE, the Hepatotoxicity result was “DILI negative (test set)”.

As to `CN[C@@H]1[C@H](O[C@H]2[C@H](O[C@H]3[C@H](O)[C@@H](O)[C@H](N=C(N)N)[C@@H](O)[C@@H]3N=C(N)N)O[C@@H](C)[C@]2(O)C=O)O[C@@H](CO)[C@H](O)[C@H]1O.CN[C@@H]1[C@H](O[C@H]2[C@H](O[C@H]3[C@H](O)[C@@H](O)[C@H](N=C(N)N)[C@@H](O)[C@@H]3N=C(N)N)O[C@@H](C)[C@]2(O)C=O)O[C@@H](CO)[C@H](O)[C@H]1O.O=S(=O)(O)O.O=S(=O)(O)O.O=S(=O)(O)O` [STREPTOMYCIN SULFATE], for the setting “Liver”, the Hepatotoxicity entry is “DILI negative (training set)”. As to `Clc1ccc2c(c1)C(N1CCNCC1)=Nc1ccccc1O2` [AMOXAPINE], the Hepatotoxicity entry is listed as “DILI negative (training set)”. In the case of `Cl.N[C@@H]1C[C@H]1c1ccccc1` [TRANYLCYPROMINE HYDROCHLORIDE], the Hepatotoxicity entry (Liver) was “DILI negative (training set)”.

Turning to `CN1CCC[C@@H]1CCO[C@](C)(c1ccccc1)c1ccc(Cl)cc1.O=C(O)/C=C/C(=O)O` [CLEMASTINE FUMARATE], the Hepatotoxicity result is given as “DILI negative (test set)”.
